Data on one compound can be found in US11040053B2, “Compositions and methods for activating “stimulator of interferon gene”13 dependent signalling” (CHINOOK THERAPEUTICS, INC., priority 2015, dated 2021).

The subject of the assay is B16.SIY cells. In words: B16.SIY melanoma mouse model, intra-tumoral injection. It counts as in vivo, C57BL/6 mice. How it is done: To determine whether the derivative molecules elicit anti-tumor immunity, 6-8 week old female C57BL/6 mice (8 mice per group) were implanted with B16.SIY cells (5×10^5 cells in 100 μL PBS). Mice were treated with reference compound 3′3′-RR-(A)(A) and di-F compound 3′3′-RR-(2′F-A)(2′F-A) (5, 50, 100 μg in a total volume of 40 μL HBSS), or HBSS vehicle control. Treatments began when tumors reached a volume of approximately 100 mm^3, on day 9 post tumor implantation. The CDN compounds were administered by […] injection into the center of the tumor (IT) using a 27 gauge needle. Mice were bled on day 16 post tumor implantation and PBMCs were isolated by Ficoll gradient (Miltenyi Biotech). 1×10^5 PBMCs were pre-incubated with anti-CD16/32 monoclonal antibody to block potential nonspecific binding, and labeled with PE-MHC class I pentamer (Proimmune) consisting of murine H-2Kb complexed to […] (SIY, SEQ ID NO: 16) peptide, anti-TCRβ-AF700 (H57-597), anti-CD8-Pacific Blue (53-6.7), anti-CD4-Pacific Orange (RM4-5) (all antibodies from BioLegend) and the Fixable Viability Dye eFluor 450 (eBioscience). Stained cells were analyzed using FACS Versa cytometer with FACSDiva software (BD). Data analysis was conducted with FlowJo software (Tree Star).

SMILES strings stand for the structures.

On to `Nc1ncnc2c1ncn2[C@@H]1O[C@@H]2CO[P@@](=O)(S)O[C@H]3[C@@H](F)[C@H](n4cnc5c(N)ncnc54)O[C@@H]3CO[P@@](=O)(S)O[C@H]2[C@H]1F` [Compound 6, (2R,3R,3aR,5R,7aR,9R,10R,10aR,12R,14aR)-2,9-bis(6-amino-9H-purin-9-yl)-3,10-difluoro-5,12-dimercaptooctahydro-2H,7H-difuro[3,2-d:3′,2′-j][1,3,7,9]tetraoxa[2,8]diphosphacyclododecine 5,12-dioxide], for which the “tumor volume / tumor growth, in words” value (FIG. 14A, IT injection 5, 50, 100 μg, established B16-SIY melanomas) was “rejected the growth of established B16-SIY melanomas at all doses”. The “percent of SIY-specific CD8+ T cells in PBMCs, in words” value (FIG. 14B, 5 μg IT, day 7 post-IT injection, vs HBSS control) is on record as “elicited significantly SIY-specific CD8^+ T cells”.
